According to ChEMBL document CHEMBL5365492 (J Med Chem, 2023):
Square brackets hold non-standard residues; d marks the D form. Peptide text beside a SMILES is read from it. NMeL = CN[C@@H](CC(C)C)C(=O)O; NMeV = CN[C@H](C(=O)O)C(C)C; Nva = CCC[C@H](N)C(=O)O; Sar = CNCC(=O)O

How the values were obtained:
[1] = Permeability of compound at 10 uM incubated for 18 hrs by PAMPA assay; assay type: ADME; conditions: read-out: permeability
[2] = 1,9-decadiene-water partition coefficient, logD of compound at pH 7.4 at 10 uM incubated for 30 mins by LC-MS analysis; assay type: physicochemical
[3] = Permeability in human Caco-2 cells at 10 uM incubated for 2 hrs by LC-MS analysis; assay type: ADME, cell-based; conditions: read-out: permeability

SMILES | Papp at 18 h, 10 µM [1] | logD hydrocarbon water at 0.5 h, 10 µM [2] | Papp at 2 h, 10 µM [3]
CCC[C@@H]1NC(=O)[C@H]([C@@H](C)O)N(C)C(=O)[C@H](CC(C)C)NC(=O)[C@H](CC(C)C)N(C)C(=O)[C@H](CC(C)C)N(C)C(=O)[C@@H](C)NC(=O)[C@H](C)NC(=O)[C@H](CC(C)C)N(C)C(=O)[C@H](C(C)C)NC(=O)[C@H](CC(C)C)N(C)C(=O)CN(C)C1=O | 7.7 ×10⁻⁶ cm/s | 2.52 | 2.6 ×10⁻⁶ cm/s
CCCC[C@@H]1NC(=O)[C@H](CC(C)C)N(C)C(=O)[C@H](CC(C)C)N(C)C(=O)[C@@H](C)NC(=O)[C@H](C)NC(=O)[C@H](CC(C)C)N(C)C(=O)[C@H](C(C)C)NC(=O)[C@H](CC(C)C)N(C)C(=O)CN(C)C(=O)[C@H](CCC)NC(=O)[C@H]([C@@H](C)O)N(C)C1=O | 5.2 ×10⁻⁶ cm/s | 2.59 | 3 ×10⁻⁶ cm/s
CCC[C@@H]1NC(=O)[C@H](CC)N(C)C(=O)[C@H](C(C)C)N(C)C(=O)[C@H](CC(C)C)N(C)C(=O)[C@H](CC(C)C)N(C)C(=O)[C@@H](C)NC(=O)[C@H](C)NC(=O)[C@H](CC(C)C)N(C)C(=O)[C@H](C(C)C)NC(=O)[C@H](CC(C)C)N(C)C(=O)CN(C)C1=O | 2 ×10⁻⁶ cm/s | 3.58 | 6.4 ×10⁻⁶ cm/s
CCC[C@@H]1NC(=O)[C@H]([C@@H](C)O)N(C)C(=O)[C@H](C(C)C)N(C)C(=O)[C@H](CC(C)C)N(C)C(=O)[C@H](CC(C)C)N(C)C(=O)[C@@H](C)NC(=O)[C@H](C)NC(=O)[C@H](CC(C)C)N(C)C(=O)[C@H](C(C)C)NC(=O)[C@H](CC(C)C)N(C)C(=O)CN(C)C1=O | 6.6 ×10⁻⁶ cm/s | 2.12 | 3 ×10⁻⁶ cm/s
CCC[C@@H]1NC(=O)[C@H]([C@@H](C)O)N(C)C(=O)[C@H]([C@@H](C)CC)NC(=O)[C@H](CC(C)C)N(C)C(=O)[C@H](CC(C)C)N(C)C(=O)[C@@H](C)NC(=O)[C@H](C)NC(=O)[C@H](CC(C)C)N(C)C(=O)[C@H](C(C)C)NC(=O)[C@H](CC(C)C)N(C)C(=O)CN(C)C1=O | 7.5 ×10⁻⁶ cm/s | 2.58 | 2.2 ×10⁻⁶ cm/s
NC(=O)N1c2ccccc2C=Cc2ccccc21 [CARBAMAZEPINE] | 9.5 ×10⁻⁶ cm/s | 0.13 | 
C/C=C/C[C@@H](C)[C@@H](OC(C)=O)[C@H]1C(=O)N[C@@H](CC)C(=O)N(C)CC(=O)N(C)[C@@H](CC(C)C)C(=O)N[C@@H](C(C)C)C(=O)N(C)[C@@H](CC(C)C)C(=O)N[C@@H](C)C(=O)N[C@H](C)C(=O)N(C)[C@@H](CC(C)C)C(=O)N(C)[C@@H](CC(C)C)C(=O)N(C)[C@@H](C(C)C)C(=O)N1C |  | 5.17 | 
CCC[C@@H]1NC(=O)[C@H]([C@H](O)C(C)C)N(C)C(=O)[C@H](C(C)C)N(C)C(=O)[C@H](CC(C)C)N(C)C(=O)[C@H](CC(C)C)N(C)C(=O)[C@@H](C)NC(=O)[C@H](C)NC(=O)[C@H](CC(C)C)N(C)C(=O)[C@H](C(C)C)NC(=O)[C@H](CC(C)C)N(C)C(=O)CN(C)C1=O | 9.2 ×10⁻⁶ cm/s | 3.35 | 18.6 ×10⁻⁶ cm/s
CC(C)NCC(O)COc1cccc2ccccc12 (configuration not stated) [PROPRANOLOL] |  |  | 32 ×10⁻⁶ cm/s
CCC[C@@H]1NC(=O)[C@H]([C@@H](C)O)N(C)C(=O)[C@H](C(C)C)N(C)C(=O)CN(CC[N+](CC)(CC)CC)C(=O)[C@H](CC(C)C)N(C)C(=O)[C@@H](C)NC(=O)[C@H](C)NC(=O)[C@H](CC(C)C)N(C)C(=O)[C@H](C(C)C)NC(=O)[C@H](CC(C)C)N(C)C(=O)CN(C)C1=O.O=C([O-])C(F)(F)F |  | -2.44 | 0.35 ×10⁻⁶ cm/s

Second part, the compound after the results:

Papp at 18 h, 10 µM [1] | logD hydrocarbon water at 0.5 h, 10 µM [2] | Papp at 2 h, 10 µM [3] | SMILES
 | 4.6 | 6.8 ×10⁻⁶ cm/s | CCC[C@@H]1NC(=O)[C@H]([C@H](O)C(C)C)N(C)C(=O)[C@H](C(C)C)NC(=O)[C@H](CC(C)C)N(C)C(=O)[C@H](CC(C)C)N(C)C(=O)[C@@H](C)NC(=O)[C@H](C)NC(=O)[C@H](CC(C)C)N(C)C(=O)[C@H](C(C)C)NC(=O)[C@H](CC(C)C)N(C)C(=O)CN(C)C1=O
0.8 ×10⁻⁶ cm/s | 3.12 | 8.7 ×10⁻⁶ cm/s | CCC[C@@H]1NC(=O)[C@H]([C@@H](C)O)N(C)C(=O)[C@H](C(C)C)NC(=O)[C@H](CC(C)C)N(C)C(=O)[C@H](CC(C)C)N(C)C(=O)[C@@H](C)NC(=O)[C@H](C)NC(=O)[C@H](CC(C)C)N(C)C(=O)[C@H](C(C)C)NC(=O)[C@H](CC(C)C)N(C)C(=O)CN(C)C1=O
 | 0.13 | 0.07 ×10⁻⁶ cm/s | CCC[C@@H]1NC(=O)[C@H]([C@@H](C)O)N(C)C(=O)[C@H](C(C)C)N(C)C(=O)CN(CCN(C(C)C)C(C)C)C(=O)[C@H](CC(C)C)N(C)C(=O)[C@@H](C)NC(=O)[C@H](C)NC(=O)[C@H](CC(C)C)N(C)C(=O)[C@H](C(C)C)NC(=O)[C@H](CC(C)C)N(C)C(=O)CN(C)C1=O.O=C(O)C(F)(F)F
0.6 ×10⁻⁶ cm/s | 4.93 | 4.1 ×10⁻⁶ cm/s | CCC[C@@H]1NC(=O)[C@H](CC(C)C)N(C)C(=O)[C@H](C(C)C)N(C)C(=O)[C@H](CC(C)C)N(C)C(=O)[C@H](CC(C)C)N(C)C(=O)[C@@H](C)NC(=O)[C@H](C)NC(=O)[C@H](CC(C)C)N(C)C(=O)[C@H](C(C)C)NC(=O)[C@H](CC(C)C)N(C)C(=O)CN(C)C1=O (cyclo(A[dA][NMeL][NMeL][NMeV][NMeL][Nva][Sar][NMeL]V[NMeL]))
0.3 ×10⁻⁶ cm/s | 1.45 | 0.3 ×10⁻⁶ cm/s | CCC[C@@H]1NC(=O)[C@H]([C@@H](C)O)N(C)C(=O)[C@H](C)NC(=O)[C@H](CC(C)C)N(C)C(=O)[C@H](CC(C)C)N(C)C(=O)[C@@H](C)NC(=O)[C@H](C)NC(=O)[C@H](CC(C)C)N(C)C(=O)[C@H](C(C)C)NC(=O)[C@H](CC(C)C)N(C)C(=O)CN(C)C1=O
